How the values were obtained:
[1] = target: T1, frataxin^1-210 in HEK-293 Flp-In cells (293-frataxin) (Homo sapiens, UniProt Q16595); assay: Frataxin precursor / mature frataxin accumulation in 293-frataxin cells (western blot); assay type: cell-based; conditions: 10 μM; for frataxin precursor accumulation: 24 hrs, compared with UCM2 and MG132; for mature frataxin accumulation: 72 hrs (3 days)
T1 construct: 293 Flp-In cells stably expressing frataxin^1-210 were treated for 24 hrs; expressed in transfected cells
T1 sequence (Q16595 42-210): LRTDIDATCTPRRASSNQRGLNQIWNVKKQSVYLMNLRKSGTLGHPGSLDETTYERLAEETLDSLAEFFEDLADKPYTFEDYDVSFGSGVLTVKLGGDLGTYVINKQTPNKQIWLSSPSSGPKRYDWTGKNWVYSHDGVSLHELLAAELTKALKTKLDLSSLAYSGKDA
Protocol: (§1) Cell culture and transfections. Human embryonic kidney HEK-293 cells were cultured in Dulbecco's modified Eagle's medium (DMEM) supplemented with 10% fetal bovine serum (FBS). HEK-293 cells were transfected using Lipofectamine 2000 reagents (Invitrogen), according to the manufacturer's instructions. Cells were plated on 6 cm dishes and transfected with 8 μg of total DNA (4 μg of pIRES-frataxin and 4 μg of HA-Ub). The day after transfection, cells were treated for 24 h with 10 μM UCM together with 10 μM proteasome inhibitor MG132 and 50 ng/ml deubiquitinating enzyme (DUB) inhibitor Ub-aldehyde. HEK-293 Flp-In cells (Invitrogen) are HEK-293 variants allowing the stable and isogenic integration and expression of a transfected gene. The HEK-293 clones stably expressing frataxin^1-210 or frataxin^K147R were previously described (Condo et al., 2007; Rufini et al., 2011). FRDA 214 (GM16214) and FRDA 798 (GM16798) lymphoblasts, from clinically affected FRDA patients, as well as FRDA 215 (GM16215) and FRDA 241 (GM16241) lymphoblasts, from the correspondent heterozygous clinically unaffected sibling, were obtained from Coriell Cell Repositories (Camden, N.J., USA) and were cultured in RPMI supplemented with 15% FBS.
(§2) Immunoblotting. Total cell extracts were prepared in IP buffer (50 mM Tris-HCl, pH 7.5, 150 mM NaCl, 1% Nonidet P-40, 5 mM EDTA, 5 mM EGTA) supplemented with Complete protease inhibitor cocktail (Roche Diagnostics). For in vivo detection of ubiquitin conjugates, 10 μM MG132, 50 ng/ml Ub-aldehyde and 2 mM NEM were added to the lysis buffer. Protein extract (50 μg) was separated by 12% SDS-PAGE, blotted onto a nitrocellulose membrane and detected with specific antibodies. The immunoreactive bands were detected by ECL (GE Healthcare) and imaged with a ChemiDoc XRS system (Bio-Rad Laboratories). Densitometric analysis was performed using the ImageLab 4.1 Software (Bio-Rad Laboratories).
UCMs increase frataxin levels. To validate UCM activity, UCMs were tested their effect in human HEK-293 cells stably expressing single copy frataxin (293-frataxin). These cells allow the detection of all forms of frataxin, including the frataxin precursor. Compounds that were able to enhance frataxin precursor levels were synthesized, further chemically modified according to the docking model and tested again in 293-frataxin. Approximately 200 new candidate UCMs were tested in functional assays. Through this iterative process, new UCMs that promote frataxin precursor with surprising efficiency were identified.
293 Flp-In cells stably expressing frataxin^1-210 were treated for 24 hrs with 10 μM of the indicated UCM or 10 μM MG132 (MG). Total cell extracts were resolved on SDS-PAGE and analyzed with anti-frataxin antibody, or anti-tubulin, as a loading control. Pre: precursor; tub: tubulin.
293 Flp-In cells stably expressing frataxin^1-210 were treated for 72 hrs with 10 μM of the indicated UCM. Total cell extracts were resolved on SDS-PAGE and analyzed with anti-frataxin antibody, or anti-tubulin, as a loading control. Pre: precursor, int: intermediate, mat: mature; tub: tubulin.

[2] = target: T2, Human recombinant frataxin precursor (aa 1-210) (Homo sapiens, UniProt Q16595); assay: Steady-state Trp fluorescence binding of UCMs to recombinant frataxin precursor; conditions: for change of protein Trp fluorescence (ΔF/F0): 2 μM frataxin precursor, ligand 0.5 to 25 μM, 20° C; for half-saturation binding constant, L1/2: 2 μM native frataxin precursor, numbers only in FIG. 5
T2 construct: Human recombinant frataxin precursor (aa 1-210) was expressed and purified; purchased GenScript Corp., N.J., USA
T2 sequence (Q16595 1-210): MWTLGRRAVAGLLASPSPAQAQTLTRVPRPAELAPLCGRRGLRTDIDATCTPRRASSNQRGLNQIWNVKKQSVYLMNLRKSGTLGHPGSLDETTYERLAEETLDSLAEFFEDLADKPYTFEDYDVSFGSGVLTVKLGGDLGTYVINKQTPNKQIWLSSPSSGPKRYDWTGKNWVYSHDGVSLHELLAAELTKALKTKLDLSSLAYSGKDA
Protocol: Steady-state fluorescence measurements. Human recombinant frataxin precursor (aa 1-210) was expressed and purified by GenScript Corp., N.J., USA. Steady-state fluorescence spectra were recorded at 20° C. using an ISS PC1 fluorometer (Iss Inc, Champain, Ill. Usa). The affinity of frataxin for the ligands studied in this paper was determined by monitoring the decrease in Trp fluorescence upon the addition of these molecules to solutions. The concentration of the protein was 2 μM while the concentration of the ligands varied from 0.5 to 25 μM. At the excitation wavelength of 280 nm, emission spectra were recorded between 290 and 440 nm, using a 4×4 mm path-length quartz fluorescence microcuvette (Hellma GmbH & Co., Müllheim/Baden, Germany). The spectra were corrected using an instrument correction curve obtained with standard fluorescent compounds such as N-acetyl tryptophanamide (NATA). All measurements were also corrected for the inner-filter effect. To simulate the absorption of ligand molecules at the excitation and the emission wavelengths, two cuvettes (2 mm optical length), containing a solution of ligands in buffer, were placed along the excitation and emission pathways. The fluorescence of NATA was thus measured varying the concentration of quencher and four correction curves (one for each ligand) were obtained.
Data were then plotted as fractional loss of Trp fluorescence (ΔF/F0) versus ligand concentration. Experimental data were analyzed by nonlinear regression through a hyperbolic binding isotherm, using the Kaleidagraph program (Synergy Software).
UCMs interact with frataxin. Ubiquitin-competing molecules were selected through structure-based virtual screening for their potential ability to interact with frataxin on its ubiquitination site. Since they are in fact able to prevent frataxin ubiquitination and to interfere with its K147-dependent degradation, confirmation of their ability to physically interact with frataxin was sought. Therefore, the interaction propensities of frataxin with these molecules were investigated by fluorescence spectroscopy through the analysis of the changes of the signal of the protein tryptophan residues in the presence of the different compounds.
The graphs represent the fractional loss of the protein fluorescence intensity (ΔF/F0), in the presence of different concentration of ligand, versus the ratio between ligand and frataxin. The interaction with UCM53 was also analyzed in the case of frataxin precursor previously denaturated in 3M guanidinium hydrochloride (lower right panel). The half-saturation binding constant, L1/2 (μM), of frataxin precursor with different UCM is indicated in each panel.

[3] = target: T3, frataxin in FRDA 798 and FRDA 214 lymphoblasts (Homo sapiens, UniProt Q16595); assay: Frataxin accumulation in FRDA patient-derived lymphoblasts FRDA 798 and FRDA 214 (western blot); assay type: cell-based; conditions: for mature frataxin accumulation in FRDA patient cells: FRDA 798 and FRDA 214 lymphoblasts, 10 μM, 5 days, vs vehicle
T3 construct: GM16798; host or cells: FRDA 798, FRDA 214 and FRDA 203 patient-derived lymphoblasts
T3 sequence (Q16595 42-210): T1 sequence (Q16595 42-210)
Protocol: as §1
as §2, with “For in vivo detection of ubiquitin conjugates, 10 μM MG132, 50 ng/ml Ub-aldehyde and 2 mM NEM were added to the lysis buffer.” left out, “Densitometric analysis was performed using the ImageLab 4.1 Software (Bio-Rad Laboratories).” left out
UCM compounds promote frataxin accumulation in FRDA cells and rescue the aconitase defect. […] Frataxin levels were quantitated by western blot analysis on whole cell extracts using anti-frataxin antibody, or anti-tubulin, as a loading control. The relative frataxin abundance was quantitated by densitometric analysis and normalized with tubulin levels. […]

frataxin ubiquitination = target: T4, frataxin ubiquitination (Homo sapiens, UniProt Q16595); assay: In vivo (in-cell) frataxin ubiquitination assay in HEK-293 cells co-transfected with HA-Ub and frataxin; assay type: cell-based; conditions: HEK-293, HA-Ub + frataxin^1-210, 10 μM UCM, with MG132 and Ub-aldehyde
T4 construct: 293 cells were transiently co-transfected with HA-Ub and frataxin^1-210; expressed in transfected cells; host or cells: HEK-293 cells, transient transfection (pIRES-frataxin plus HA-Ub)
T4 sequence (Q16595 42-210): T1 sequence (Q16595 42-210)
Protocol: Cell culture and transfections. Human embryonic kidney HEK-293 cells were cultured in Dulbecco's modified Eagle's medium (DMEM) supplemented with 10% fetal bovine serum (FBS). HEK-293 cells were transfected using Lipofectamine 2000 reagents (Invitrogen), according to the manufacturer's instructions. Cells were plated on 6 cm dishes and transfected with 8 μg of total DNA (4 μg of pIRES-frataxin and 4 μg of HA-Ub). The day after transfection, cells were treated for 24 h with 10 μM UCM together with 10 μM proteasome inhibitor MG132 and 50 ng/ml deubiquitinating enzyme (DUB) inhibitor Ub-aldehyde. […]
Immunoblotting. […] Protein extract (50 μg) was separated by 12% SDS-PAGE, blotted onto a nitrocellulose membrane and detected with specific antibodies. The immunoreactive bands were detected by ECL (GE Healthcare) and imaged with a ChemiDoc XRS system (Bio-Rad Laboratories). […]
UCMs prevent frataxin ubiquitination. To test whether the new compounds promote frataxin accumulation by preventing its ubiquitin/proteasome-dependent degradation, their impact on frataxin ubiquitination was evaluated. […] The ubiquitination status of frataxin was evaluated by SDS-PAGE of total cell lysates and anti-frataxin immunoblotting. […] Ubiquitination level was measured as the ratio between the levels of ubiquitinated frataxin and frataxin precursor. […]

[4] = tested on: aconitases activity in FRDA 214 lymphoblasts; assay: Aconitase activity rescue in FRDA lymphoblasts; assay type: cell-based, human; conditions: 5 days treatment
Protocol: Enzyme assays. For determinations of aconitases and citrate synthase activity, FRDA lymphoblasts were washed twice with ice-cold Dulbecco's Phosphate Buffered Saline (DPBS) and lysed in CelLytic M buffer (Sigma-Aldrich) supplemented with Complete protease inhibitor cocktail EDTA-free (Roche) and 2 mM trisodium citrate. Citrate was included to prevent the inactivation of iron-sulfur cluster of aconitases. Total aconitase activity was measured spectrophotometrically at 340 nm using the BIOXYTECH Aconitase-340™ Assay (OxisResearch™ 21041). The assay reactions, containing 150 μg of cell extract, were performed following the supplier's procedure, with the exception of temperature incubation at 25° C. Citrate synthase activity was assessed using 15 μg of cell extract with the Citrate Synthase Assay Kit (Sigma-Aldrich CS0720).
The aconitase activities were normalized with respect to citrate synthase ratios; one milliunit of enzyme was defined as the amount of protein that converted 1 nmol of NADP^+ in 1 min at 25° C.
Moreover, to validate a functional recovery of frataxin levels, rescue of cellular aconitases activity was evaluated in FRDA cells upon treatment with UCMs. […] Aconitases activity in cells derived from an unaffected carrier sibling (FRDA 215) is also shown for comparison.

[5] = target: T5, frataxin in FRDA 203 lymphoblast cell line (Homo sapiens, UniProt Q16595); assay: Frataxin accumulation in FRDA 203 patient-derived lymphoblasts (western blot); assay type: cell-based; conditions: FRDA 203 lymphoblasts, 1 μM, 4 days, vs DMSO; five experiments, P<0.05
T5 construct: GM16798; host or cells: FRDA 798, FRDA 214 and FRDA 203 patient-derived lymphoblasts
T5 sequence (Q16595 42-210): T1 sequence (Q16595 42-210)
Protocol: The efficacy of a specific compound, UCM166, was tested in FRDA patients-derived cells. (The structure of UCM166 is as shown previously.) FRDA patient-derived lymphoblast cell line FRDA 203 was cultured in the presence of 1 μM of UCM166 or DMSO alone (as a control) for 4 days. Total cell extracts were resolved on SDS-PAGE and analyzed in a western blot with anti-frataxin antibody, or anti-tubulin, as a loading control. FIG. 7 represents the relative frataxin abundance as quantified by densitometric analysis and normalized with tubulin levels. The data represent the mean±S.E.M. from five different independent experiments. P-value was calculated with Student's t-test and was statistically significant (**P<0.05) compared to non-treated conditions.

C/C(=N\NC(=O)c1ccc(C)cc1C)c1ccc2c(c1)Nc1ccccc1S2 [UCM53]
frataxin precursor accumulation [1]: induce frataxin precursor accumulation
mature frataxin accumulation [1]: accumulation of mature frataxin
change of protein Trp fluorescence (ΔF/F0) [2]: strong fluorescence changes
half-saturation binding constant, L1/2 [2]: lowest binding affinity constants
fluorescence changes with denatured protein ([2]; frataxin precursor denaturated in 3M guanidinium hydrochloride): completely lost
mature frataxin accumulation in FRDA patient cells [3]: significant accumulation of mature frataxin
frataxin ubiquitination (ratio of ubiquitinated frataxin to frataxin precursor) (frataxin ubiquitination): significantly abrogate frataxin ubiquitination

C/C(=N\NC(=O)c1cc2ccccc2cc1O)c1ccc2c(c1)Nc1ccccc1S2 [UCM71]
frataxin precursor accumulation [1]: induce frataxin precursor accumulation
mature frataxin accumulation [1]: accumulation of mature frataxin
toxicity in long-term cell treatment ([3]; FRDA lymphoblasts, long-term (5 days) treatment): toxicity over a long-term treatment
frataxin ubiquitination (ratio of ubiquitinated frataxin to frataxin precursor) (frataxin ubiquitination): significantly abrogate frataxin ubiquitination

C/C(=N\NC(=O)c1ccccc1)c1ccc2c(c1)Nc1ccccc1S2 [UCM108]
frataxin precursor accumulation [1]: induce frataxin precursor accumulation
mature frataxin accumulation [1]: accumulation of mature frataxin
change of protein Trp fluorescence (ΔF/F0) [2]: strong fluorescence changes
half-saturation binding constant, L1/2 [2]: lowest binding affinity constants
mature frataxin accumulation in FRDA patient cells [3]: significant accumulation of mature frataxin
aconitases activity (normalized to citrate synthase) [4]: significant increase in aconitases activity

COc1ccccc1C(=O)N/N=C(\C)c1ccc2c(c1)Nc1ccccc1S2 [UCM166]
relative frataxin abundance (normalized with tubulin) [5]: efficiently promotes frataxin accumulation
